The values below come from the SangsterLogP compilation.

Experiment in the first data set: not given
Conditions: not given
As for `Cc1ccc(N2Cn3c(nc4ccccc4c3=O)C2C)cc1` (stereo not given), the lipophilicity (logP) worked out at 2.16.

For `CC1c2nc3ccccc3c(=O)n2CN1c1ccccc1` (stereo not given), the logP is 1.78.

`CC1c2nc3ccccc3c(=O)n2CN1CCc1ccccc1` (stereo not given) yielded a log partition coefficient (logP) of 1.8.

`COc1ccc(N2Cn3c(nc4ccccc4c3=O)C2C)cc1` (stereo not given) came in with a log partition coefficient (logP) of 1.73.

`CC1c2nc3ccccc3c(=O)n2CN1Cc1ccccc1` (stereo not given) registered a log partition coefficient (logP) of 1.74.

Another data set can be described thus: method code SF-AS, from DOI: 10.1080/01483919008048971. The settings on record: pH 5.0.
On to `CCCN1Cn2c(nc3ccccc3c2=O)C1C` (stereo not given), for which the log distribution coefficient (logD) stood at 1.4.

For the compound `CCCCN1Cn2c(nc3ccccc3c2=O)C1C` (stereo not given), the logD was determined as 1.6.

In turn, `CCN1Cn2c(nc3ccccc3c2=O)C1C` (stereo not given) registered a pH-dependent lipophilicity (logD) of 1.02.

Regarding `CC1c2nc3ccccc3c(=O)n2CN1C` (stereo not given), the logD was determined as 0.85.

As for `CC1c2nc3ccccc3c(=O)n2CN1CCO` (stereo not given), the logD was determined as 0.46.

As usually defined, the logP is the decadic logarithm of the partition coefficient of the neutral form, usually between octanol and water. Read a low logP as lower lipophilicity. As a reminder, the logD is lipophilicity at a set pH, counting ionised and neutral species. The low end stands for a more hydrophilic compound, the high end for a more lipophilic compound.
